From patent publication US12084472B2 (Ardelyx, Inc., priority 2015, dated 2024) come the findings set out here.

The target in the test is T1, human TGR5 (Homo sapiens, UniProt Q8TDU6).
T1 construct: expressed in transfected cells; host or cells: HEK293
T1 sequence (Q8TDU6 1-330): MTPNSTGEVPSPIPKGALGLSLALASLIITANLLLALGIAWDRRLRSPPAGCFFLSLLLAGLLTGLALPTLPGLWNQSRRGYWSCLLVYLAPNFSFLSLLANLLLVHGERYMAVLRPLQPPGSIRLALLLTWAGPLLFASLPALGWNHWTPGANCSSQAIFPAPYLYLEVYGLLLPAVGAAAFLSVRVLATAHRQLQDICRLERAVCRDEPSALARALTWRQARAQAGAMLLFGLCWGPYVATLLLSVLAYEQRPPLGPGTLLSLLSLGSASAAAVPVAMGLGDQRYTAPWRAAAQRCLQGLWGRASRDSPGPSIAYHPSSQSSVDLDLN
The test is described as follows: Cell-based TGR5 assay (cAMP generation, HTRF). To be noted: HEK293 cells stably transfected with human TGR5; cAMP by HTRF; 30 minutes at 37° C.; read-out: pEC50 Human TGR5 (converted). In a few lines: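 Read-out was HTRF detection of cAMP, converted to concentration via a standard curve and fitted (3-parameter logistic) for pEC50 and maximal response. Agonist stimulation used HEK293 cells stably transfected with human TGR5, incubated 30 min at 37° C in IBMX-containing buffer at 0.05 nM to 10 μM compound.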
Background: Time-resolved FRET reads energy transfer from a long-lived donor to a nearby acceptor.
Turning to `CC(CCCC(=O)N(C)C[C@H](O)[C@@H](O)[C@H](O)[C@H](O)CO)c1cc(Cl)c(COC2(c3cnccc3-c3ccccc3OC3CC3)CC2)cc1Cl` (stereo partly drawn) [Compound I-162, 5-[2,5-dichloro-4-({1-[4-(2-cyclopropoxyphenyl)pyridin-3-yl]cyclopropoxy}methyl)phenyl]-N-methyl-N-[(2S,3R,4R,5R)-2,3,4,5,6-pentahydroxyhexyl]hexanamide], the EC50 was below 100 nM.

Turning to `CN(C)C[C@H](NC(=O)CCCCc1cc(Cl)c(COC2(c3cnccc3-c3ccccc3OC3CC3)CC2)cc1Cl)[C@@H](O)[C@H](O)[C@H](O)CO` [Compound I-165, 5-[2,5-dichloro-4-({1-[4-(2-cyclopropoxyphenyl)pyridin-3-yl]cyclopropoxy}methyl)phenyl]-N-[(2S,3R,4S,5R)-1-(dimethylamino)-3,4,5,6-tetrahydroxyhexan-2-yl]pentanamide], the EC50 was below 100 nM.

Consider `Cc1cc(COC2(c3cnccc3-c3ccccc3OC3CC3)CC2)c(Cl)cc1CCCCN` [Compound I-166, 4-[5-chloro-4-({1-[4-(2-cyclopropoxyphenyl)pyridin-3-yl]cyclopropoxy}methyl)-2-methylphenyl]butan-1-amine], for which the EC50 was below 100 nM.

For the molecule `Cc1cc(COC2(c3cnccc3-c3ccccc3OC3CC3)CC2)c(Cl)cc1CCCCNC(=O)N(C)C[C@H](O)[C@@H](O)[C@H](O)[C@H](O)CO` [Compound I-167, 1-{4-[5-chloro-4-({1-[4-(2-cyclopropoxyphenyl)pyridin-3-yl]cyclopropoxy}methyl)-2-methylphenyl]butyl}-3-methyl-3-[(2S,3R,4R,5R)-2,3,4,5,6-pentahydroxyhexyl]urea], the EC50 is below 100 nM.

`CN(C[C@H](O)[C@@H](O)[C@H](O)[C@H](O)CO)C(=O)CCN(CCC(=O)N(C)C[C@H](O)[C@@H](O)[C@H](O)[C@H](O)CO)C(=O)CCCCc1cc(Cl)c(COC2(c3cnccc3-c3ccccc3OC3CC3)CC2)cc1Cl` [Compound I-169, 5-[2,5-dichloro-4-({1-[4-(2-cyclopropoxyphenyl)pyridin-3-yl]cyclopropoxy}methyl)phenyl]-N,N-bis(2-{methyl[(2S,3R,4R,5R)-2,3,4,5,6-pentahydroxyhexyl]carbamoyl}ethyl)pentanamide]: the EC50 was 126 to 1000 nM.

For `CN(C[C@H](O)[C@@H](O)[C@H](O)[C@H](O)CO)C(=O)CCN(CCC(=O)N(C)C[C@H](O)[C@@H](O)[C@H](O)[C@H](O)CO)C(=O)CCCCc1cc(Cl)c(CNC2(c3cnccc3-c3ccccc3OC3CC3)CC2)cc1Cl` [Compound I-171, 5-{2,5-dichloro-4-[({1-[4-(2-cyclopropoxyphenyl)pyridin-3-yl]cyclopropyl}amino)methyl]phenyl}-N,N-bis(2-{methyl[(2S,3R,4R,5R)-2,3,4,5,6-pentahydroxyhexyl]carbamoyl}ethyl) pentanamide], the EC50 was 1260 to 10000 nM.

For `O=C(NCCCCc1cc(Cl)c(CNC2(c3cnccc3-c3ccccc3OC3COC3)CC2)cc1Cl)NC[C@H](O)[C@@H](O)[C@H](O)[C@H](O)CO` [Compound I-174, 1-[4-(2,5-dichloro-4-([(1-{4-[2-(oxetan-3-yloxy)phenyl]pyridin-3-yl}cyclopropyl)amino]methyl)phenyl)butyl]-3-[(2S,3R,4R,5R)-2,3,4,5,6-pentahydroxyhexyl]urea], the EC50 was 126 to 1000 nM.

For `CN(C[C@H](O)[C@@H](O)[C@H](O)[C@H](O)CO)C(=O)NCCCCc1cc(Cl)c(CNC2(c3cnccc3-c3ccccc3OC3COC3)CC2)cc1Cl` [Compound I-175, 1-[4-(2,5-dichloro-4-{[(1-{4-[2-(oxetan-3-yloxy)phenyl]pyridin-3-yl}cyclopropyl)amino]methyl}phenyl)butyl]-3-methyl-3-[(2S,3R,4R,5R)-2,3,4,5,6-pentahydroxyhexyl]urea], the EC50 is 126 to 1000 nM.

Regarding `CN(C[C@H](O)[C@@H](O)[C@H](O)[C@H](O)CO)C(=O)CCCCc1cc(Cl)c(CNC2(c3cnccc3-c3ccccc3OC3COC3)CC2)cc1Cl` [Compound I-177, 5-(2,5-dichloro-4-{[(1-(4-[2-(oxetan-3-yloxy)phenyl]pyridin-3-yl}cyclopropyl)amino]methyl)phenyl)-N-methyl-N-[(2S,3R,4R,5R)-2,3,4,5,6-pentahydroxyhexyl]pentanamide], the EC50 is below 100 nM.

On to `O=C(O)CCN(C[C@H](O)[C@@H](O)[C@H](O)[C@H](O)CO)C(=O)CCCCc1cc(Cl)c(CNC2(c3cnccc3-c3ccccc3OC3CC3)CC2)cc1Cl` [Compound I-178, 3-(5-{2,5-dichloro-4-[({1-[4-(2-cyclopropoxyphenyl)pyridin-3-yl]cyclopropyl}amino)methyl]phenyl}-N-[(2S,3R,4R,5R)-2,3,4,5,6-pentahydroxyhexyl]pentanamido)propanoic acid], for which the EC50 is 126 to 1000 nM.

As for `CN(CCCNC[C@H](O)[C@@H](O)[C@H](O)[C@H](O)C(=O)O)C(=O)CCCCc1cc(Cl)c(COC2(c3cnccc3-c3ccccc3OC3CC3)CC2)cc1Cl` [Compound I-180, (2S,3S,4R,5S)-6-[(3-{5-[2,5-dichloro-4-({1-[4-(2-cyclopropoxyphenyl)pyridin-3-yl]cyclopropoxy}methyl)phenyl]-N-methylpentanamido}propyl)amino]-2,3,4,5-tetrahydroxyhexanoic acid], the EC50 was below 100 nM.

In the case of `O=C(O)CCCC(=O)N(CCCCc1cc(Cl)c(COC2(c3cnccc3-c3ccccc3OC3CC3)CC2)cc1Cl)C[C@H](O)[C@@H](O)[C@H](O)[C@H](O)CO` [Compound I-182, 4-({4-[2,5-dichloro-4-({1-[4-(2-cyclopropoxyphenyl)pyridin-3-yl]cyclopropoxy}methyl)phenyl]butyl}[(2S,3R,4R,5R)-2,3,4,5,6-pentahydroxyhexyl]carbamoyl)butanoic acid], the EC50 is below 100 nM.

Take `O=C(O)CCN(C[C@H](O)[C@@H](O)[C@H](O)[C@H](O)CO)C(=O)CCCCc1cc(Cl)c(COC2(c3cnccc3-c3ccccc3OC3CC3)CC2)cc1Cl` [Compound I-183, 3-{5-[2,5-dichloro-4-({1-[4-(2-cyclopropoxyphenyl)pyridin-3-yl]cyclopropoxy}methyl)phenyl]-N-[(2S,3R,4R,5R)-2,3,4,5,6-pentahydroxyhexyl]pentanamido}propanoic acid]: the EC50 is below 100 nM.

For `CN(CCCCc1cc(Cl)c(COC2(c3cnccc3-c3ccccc3OC3CC3)CC2)cc1Cl)C(=O)CN(CCN(CC(=O)O)CC(=O)N(C)CCCCc1cc(Cl)c(COC2(c3cnccc3-c3ccccc3OC3CC3)CC2)cc1Cl)CC(=O)O` [Compound I-188, 2-({2-[(carboxymethyl)[({4-[2,5-dichloro-4-({1-[4-(2-cyclopropoxyphenyl)pyridin-3-yl]cyclopropoxy}methyl)phenyl]butyl}(methyl)carbamoyl)methyl]amino]ethyl}[({4-[2,5-dichloro-4-({1-[4-(2-cyclopropoxyphenyl)pyridin-3-yl]cyclopropoxy}methyl)phenyl]butyl}(methyl)carbamoyl)methyl]amino)acetic acid], the EC50 was 126 to 1000 nM.

Consider `Cc1cc(COC2(c3cnccc3-c3ccccc3OC3COC3)CC2)c(Cl)cc1CCCCNC(=O)N(C)C[C@H](O)[C@@H](O)[C@H](O)[C@H](O)CO` [Compound I-191, 1-(4-{5-chloro-2-methyl-4-[(1-{4-[2-(oxetan-3-yloxy)phenyl]pyridin-3-yl}cyclopropoxy)methyl]phenyl}butyl)-3-methyl-3-[(2S,3R,4R,5R)-2,3,4,5,6-pentahydroxyhexyl]urea], for which the EC50 was below 100 nM.

`CN(C[C@H](O)[C@@H](O)[C@H](O)[C@H](O)CO)C(=O)CCCCc1cc(Cl)c(COC2(c3cnccc3-c3ccccc3OC3COC3)CC2)cc1Cl` [Compound I-192, 5-{2,5-dichloro-4-[(1-{4-[2-(oxetan-3-yloxy)phenyl]pyridin-3-yl}cyclopropoxy)methyl]phenyl}-N-methyl-N-[(2S,3R,4R,5R)-2,3,4,5,6-pentahydroxyhexyl]pentanamide]: the EC50 is below 100 nM.

Regarding `O=C(NCCCCc1cc(Cl)c(COC2(c3cnccc3-c3ccccc3OC3COC3)CC2)cc1Cl)NC[C@H](O)[C@@H](O)[C@H](O)[C@H](O)CO` [Compound I-193, 1-(4-{2,5-dichloro-4-[(1-{4-[2-(oxetan-3-yloxy)phenyl]pyridin-3-yl}cyclopropoxy)methyl]phenyl}butyl)-3-[(2S,3R,4R,5R)-2,3,4,5,6-pentahydroxyhexyl]urea], the EC50 was below 100 nM.

For the molecule `CN(CC(=O)O)CC(=O)N(CCCCc1cc(Cl)c(COC2(c3cnccc3-c3ccccc3OC3CC3)CC2)cc1Cl)C[C@H](O)[C@@H](O)[C@H](O)[C@H](O)CO` [Compound I-195, 2-{[({4-[2,5-dichloro-4-({1-[4-(2-cyclopropoxyphenyl)pyridin-3-yl]cyclopropoxy}methyl)phenyl]butyl}[(2S,3R,4R,5R)-2,3,4,5,6-pentahydroxyhexyl]carbamoyl)methyl](methyl)amino}acetic acid], the EC50 was 126 to 1000 nM.

On to `CC(C)(CC(=O)O)CC(=O)N(CCCCc1cc(Cl)c(COC2(c3cnccc3-c3ccccc3OC3CC3)CC2)cc1Cl)C[C@H](O)[C@@H](O)[C@H](O)[C@H](O)CO` [Compound I-196, 4-({4-[2,5-dichloro-4-({1-[4-(2-cyclopropoxyphenyl)pyridin-3-yl]cyclopropoxy}methyl)phenyl]butyl}[(2S,3R,4R,5R)-2,3,4,5,6-pentahydroxyhexyl]carbamoyl)-3,3-dimethylbutanoic acid], for which the EC50 was 126 to 1000 nM.
